# Results taken from PMC9209747 (Neuro-oncology Advances, 2022).
# Several values for one entry are separate records, joined by “and”; a condition that tells them apart may be missing. Equal entries are not always repeated. Entries after “also recorded” stand apart in the source; their conditions may differ. Where two headings read alike, the source gives them in different places.
# Columns and labels:
# [1] = clinical; conditions: human, in vivo
# Method: Pharmacokinetic parameters were calculated using noncompartmental methods[20] using Phoenix® WinNonlin® Version 8.1 (WinNonlin version 8.1.03530, Pheonix 64; Pharsight Corporation, Mountain View, CA). […] Oral steady-state clearance (ClSS/F) was calculated using the equation, ClSS = Dose/AUCτ.
# [2] = tested on: newly diagnosed diffuse intrinsic pontine glioma (DIPG); assay: Clinical activity: objective response by MRI and overall survival; format: in vivo, human
# Method: Disease assessments were performed at baseline prior to start of CRT, within 3–4 weeks after completion of CRT, and then every 3 months. Response assessment was determined by changes in size using the maximal 2-dimensional cross-sectional tumor measurements, T × W (product of the longest diameter of the tumor [width (W)] and its longest perpendicular diameter [transverse (T)], using either T1 or T2 weighted images, similar to historical controls.[21],[22] We defined stable disease (SD) as failing to meet criteria for either partial response (PR), complete response (CR) or progressive disease (PD). PD was defined as any appearance of new lesion(s) or an increase of 25% or more in the sum of the product of the perpendicular diameters of the target lesions. PR was defined as a decrease of 50% or more in the sum of the products of the two perpendicular diameters of the target lesion. Two objective determinations of disease status, by MRI, obtained on two consecutive determinations, separated by at least a 4-week time period, were required to determine the patient’s overall best response. Imaging was reviewed centrally for 41 response-evaluable patients.
# Progressive disease was based on central imaging review.
# [3] = tested on: γH2AX in peripheral blood mononuclear cells (PBMCs); assay: γH2AX in peripheral blood cells by flow cytometry (pharmacodynamics); format: in vivo, human; conditions: for γ-H2AX positive cells in peripheral blood cells, Post-Day1 dosing / γ-H2AX positive cells in peripheral blood cells, Post-Day5 dosing / γ-H2AX positive cells in peripheral blood cells, Post-Day8 dosing: individual patients
# Method: The expression of γH2AX in PBMCs was measured pre and posttreatment using flow cytometry. Effort was made to obtain two baseline (pretreatment) samples on two different days, with the first occurring within 7 days prior to CRT. Serial samples were then collected on days 1 and 5 of treatment, 6-8 hours after each dose, and day 8 prior to the day's dose. Blood samples of 1 mL were drawn into heparinized containing tubes and transferred to a Smart Tube (Thermo Fisher) followed by a 30 min incubation period in a 37°C water bath for activation per manufacture's guidelines. Samples were stored at -80°C until shipment. The frozen Smart Tubes were thawed in a 10-12°C water bath for 20 min before the red blood cells were lysed and intact cells were fixed in 90% methanol and stored at -20°C overnight. Briefly, the methanol fixed cells were washed and blocked in staining buffer (1X PBS containing 0.5 mg/ml BSA) containing TruStain FcX^TM (BioLegend) for 10 min at room temperature. Next, cells were incubated with FITC-conjugated anti-γH2AX […] antibody (BioLegend) for 1 h, washed and DNA stained with propidium iodide (2 μg/ml) before data colection by flow cytometry on CytoflexS. Percent positive γH2AX blood cells was determined by FlowJo software and described as fold-change over baseline for each patient.[16]
# [4] = cited from earlier work
# [5] = set-up: method as in ref 25 = [25]; 25. Alexander B , Supko J , Agar N , et al. ACTR-14. Phase 1 study of AZD1775 with radiation therapy (RT) and Temozolomide (TMZ) in patients with newly diagnosed gliobasltoma (GBM) and evaluation of i; conditions: adavosertib 200 mg/day (approximately 115 mg/m^2/day) in combination with temozolomide; cited from earlier work
# [6] = tested on: pediatric glioma cell lines including a DIPG derived cell line; set-up: method as in PMID 24305702; conditions: effect enhanced by radiation; cited from earlier work
# [7] = tested on: pediatric high-grade glioma including DIPG; set-up: method as in PMID 24305702, PMID 23270927; conditions: in combination with radiation therapy; cited from earlier work
# [8] = tested on: adult glioblastoma multiforme (GBM); set-up: method as in ref 3 (Mir et al.); conditions: combining radiation therapy with adavosertib; ref 3 (Mir et al.); cited from earlier work
# [9] = tested on: γH2AX in tumor tissue; set-up: method as in our preclinical studies; conditions: treated mice compared to control animals; ref our preclinical studies; cited from earlier work
# [10] = cited from earlier work; remark: listed apart in the source
# [11] = 41 patients evaluable for objective response, with CRT
# [12] = 50 mg/m², alternating with weeks of QOD dosing
compound,measurement,setting,value
C=CCn1c(=O)c2cnc(Nc3ccc(N4CCN(C)CC4)cc3)nc2n1-c1cccc(C(C)(C)O)n1 [adavosertib],AUC(0-t),"[1]; 160 mg/m2, AUC0-8h",8.47 ± 2.36 µM·h
same,Cmax,"[1]; 160 mg/m2, Cmax",1690 ± 670 nM
same,Tmax,"[1]; 160 mg/m2, Tmax",2.2 ± 1.1 h
same,AUC,[1]; 200 mg/m2,16.4 ± 7.76 µM·h
same,AUC0-8h,[1]; 200 mg/m2,6.904 ± 2.758 µM·h
same,AUC(0-inf),[1]; 200 mg/m2,12.2 ± 1.7 µM·h
same,CLss (steady-state clearance),[1]; 200 mg/m2,33.4 ± 25.8 L/hr/m^2
same,Cmax,[1]; 200 mg/m2,1650 ± 1050 nM
same,Tmax,[1]; 200 mg/m2,2.5 ± 2.1 h
same,half-life,[1]; 200 mg/m2,5.6 ± 1.3 h
same,AUC(0-t),"[1]; 200 mg/m2, AUC0-8h",9.63 ± 4.22 µM·h
same,Cmax,"[1]; 200 mg/m2, Cmax",2020 ± 780 nM
same,Tmax,"[1]; 200 mg/m2, Tmax",2.6 ± 1.4 h
same,Mean oral clearance,[1]; po,46.9 L/h
same,Tmax,"[1]; po, Tmax",2 h
same,"Progressive disease (PD) as best overall response, number of patients",[2]; [11],8
same,"Progressive disease (PD) as best overall response, share of patients",[2]; [11],19.5%
same,"Stable disease (SD) as best overall response, number of patients",[2]; [11],33
same,"Stable disease (SD) as best overall response, share of patients",[2]; [11],80.5%
same,Best response by dose level,[2]; Fisher exact P = .82,no significant difference in best response by dose level
same,Median overall survival (OS),"[2]; Kaplan Meier, adavosertib with CRT, all dose levels",11.8 months
same,OS compared to historical control,"[2]; historical cohort ACNS0126 and ACNS0222, log-rank test",did not differ from historical control; also recorded: no significant difference in median OS; also recorded: not superior
same,"γ-H2AX positive cells in peripheral blood cells, Post-Day1 dosing","[3]; 50 mg/m², During Weeks 1-6",1.42 and 1.29
same,"γ-H2AX positive cells in peripheral blood cells, Post-Day5 dosing","[3]; 50 mg/m², During Weeks 1-6",1.42 and 0.32
same,"γ-H2AX positive cells in peripheral blood cells, Post-Day8 dosing","[3]; 50 mg/m², During Weeks 1-6",0.68 and 0.11
same,"γ-H2AX positive cells in peripheral blood cells, Post-Day1 dosing","[3]; 50 mg/m², alternating weeks",2.74
same,"γ-H2AX positive cells in peripheral blood cells, Post-Day5 dosing","[3]; 50 mg/m², alternating weeks",2.03
same,"γ-H2AX positive cells in peripheral blood cells, Post-Day8 dosing","[3]; 50 mg/m², alternating weeks",7.24
same,"γ-H2AX positive cells in peripheral blood cells, Post-Day1 dosing",[3]; [12],3.17 and 1.03 and 1.31 and 0.12
same,"γ-H2AX positive cells in peripheral blood cells, Post-Day5 dosing",[3]; [12],7.63 and 0.70 and 4.90 and 0.15
same,"γ-H2AX positive cells in peripheral blood cells, Post-Day8 dosing",[3]; [12],1.08 and 2.90 and 2.30 and 0.19
same,"γ-H2AX positive cells in peripheral blood cells, Post-Day1 dosing","[3]; 95 mg/m², During Weeks 1-6",2.48 and 3.42 and 1.89
same,"γ-H2AX positive cells in peripheral blood cells, Post-Day5 dosing","[3]; 95 mg/m², During Weeks 1-6",6.31 and 0.55 and 1.63
same,"γ-H2AX positive cells in peripheral blood cells, Post-Day8 dosing","[3]; 95 mg/m², During Weeks 1-6",4.92 and 0.04 and 2.75
same,"γ-H2AX positive cells in peripheral blood cells, Post-Day1 dosing","[3]; 130 mg/m², During Weeks 1-6",0.26 and 0.38 and 0.61 and 0.16 and 10.60 and 0.31
same,"γ-H2AX positive cells in peripheral blood cells, Post-Day5 dosing","[3]; 130 mg/m², During Weeks 1-6",0.41 and 0.33 and 2.47 and 0.43 and 3.75 and 0.06
same,"γ-H2AX positive cells in peripheral blood cells, Post-Day8 dosing","[3]; 130 mg/m², During Weeks 1-6",0.48 and 1.08 and 16.50 and 0.50 and 1.49 and 0.00
same,"γ-H2AX positive cells in peripheral blood cells, Post-Day1 dosing","[3]; 160 mg/m², During Weeks 1-6",0.96 and 7.75 and 0.95 and 2.25 and 6.62
same,"γ-H2AX positive cells in peripheral blood cells, Post-Day5 dosing","[3]; 160 mg/m², During Weeks 1-6",5.27 and 0.13 and 1.86 and 0.31 and 5.28
same,"γ-H2AX positive cells in peripheral blood cells, Post-Day8 dosing","[3]; 160 mg/m², During Weeks 1-6",5.59 and 5.55 and 0.95 and 3.37 and 3.25
same,"γ-H2AX positive cells in peripheral blood cells, Post-Day1 dosing","[3]; 200 mg/m², During Weeks 1-6",0.88 and 2.45 and 17.90 and 0.00
same,"γ-H2AX positive cells in peripheral blood cells, Post-Day5 dosing","[3]; 200 mg/m², During Weeks 1-6",3.75 and 3.61 and 16.90 and 0.01 and 6.11
same,"γ-H2AX positive cells in peripheral blood cells, Post-Day8 dosing","[3]; 200 mg/m², During Weeks 1-6",0.40 and 2.17 and 14.70 and 0.01 and 5.81
same,Change of γH2AX in PBMCs compared to baseline,"[3]; any dose level, with CRT",no significant changes compared to baseline
same,Elimination half-life (t1/2),[4]; adult patients,9 to 11 h
same,Tmax,[4]; adult patients,4 h
same,Mean oral clearance,"[4]; fasting adults, ref a recent report of a food-effect study",40.85 L/h
same,Toxicity in adults with newly diagnosed glioblastoma,[5],significant toxicity
same,Anti-proliferative effect in clonogenic survival assays,[6],dose-dependent anti-proliferative effects
same,Survival in murine models,[7],prolongs survival
same,Survival in orthotopic GBM models,[8],significantly improved survival
same,γH2AX expression in tumor tissue,[9],increased expression of γH2AX
same,BSA-adjusted plasma clearance,[10]; earlier pediatric COG study,32.5 L/hr/m^2
same,MTD of adavosertib,"[10]; in combination with irinotecan 90 mg/m^2/dose, orally daily for 5 days on a 21 day cycle",85 mg/m^2/dose
